Legend:
[1] = target: T1, TRIM25 (full-length, His10-TRIM25) (Homo sapiens, UniProt Q14258); test: In vitro TRIM25 auto-ubiquitination time course assay; format: biochemical; conditions: TRIM25 4 μM pre-treated with compound 50 μM for 16 h at 4 °C, versus DMSO; assay 60 min at 30 °C
T1 construct: Full-length recombinant TRIM25 was pre-treated with either DMSO, 10 or 11; made in house; host or cells: Sf9 insect cells
Procedure: 1 Glutathione reactivity assay
2 Glutathione consumption assay was outsourced to Cyprotex, where the experimental
3 procedure was optimised and performed. 10 mM DMSO stocks of fragments 1 and 2,
5 diluted with 5 mM glutathione in PBS. The reaction was shaken before incubation at
6 40 °C. The reaction mixture was analysed via UPLC-UV-MS up to eight times across
7 24 hours, compared to known reference compounds and samples of each compound
8 in distilled water. UPLC conditions: flow rate 800 µL/min on an Acquity UPLC BEH
9 C18 1.7 µm 2.1 x 50 mm column, with column temperature 37°C, monitored at 210 to
10 350 nm. Samples were run using a 2 min gradient elution from 97% mobile phase A
11 to 0% mobile phase A, where mobile phase A was 0.1% formic acid in H2O, and mobile
12 phase B was 0.1% formic acid in 100% MeCN. MS conditions: single quad, ESI+, with
13 scan range of 50 – 1000 Da. […]
15 (k) for each compound was determined from the slope of a linear regression fit for a […]
17 differential for the eight time points. t1/2 values were calculated as follows: t1/2 = 0.693/k. […]
2 indicates the sample taken prior to the addition of ATP. Samples were analysed by […]
16 added directly to the ubiquitination assay reaction mixture. Samples were analysed as […]
18 which was detected by anti-rabbit-HRP secondary antibody (Dako, P0399, 1:2000). […]
21 analysed in ImageLab (Bio-Rad). […]

[2] = tested on: live THP-1 cells; test: IA-DTB competitive chemoproteomics in live THP-1 cells, proteome-wide off-targets; format: cell-based, 9606; conditions: compound 50 μM, 4 h at 37 °C

T1 sequence (Q14258 whole entry): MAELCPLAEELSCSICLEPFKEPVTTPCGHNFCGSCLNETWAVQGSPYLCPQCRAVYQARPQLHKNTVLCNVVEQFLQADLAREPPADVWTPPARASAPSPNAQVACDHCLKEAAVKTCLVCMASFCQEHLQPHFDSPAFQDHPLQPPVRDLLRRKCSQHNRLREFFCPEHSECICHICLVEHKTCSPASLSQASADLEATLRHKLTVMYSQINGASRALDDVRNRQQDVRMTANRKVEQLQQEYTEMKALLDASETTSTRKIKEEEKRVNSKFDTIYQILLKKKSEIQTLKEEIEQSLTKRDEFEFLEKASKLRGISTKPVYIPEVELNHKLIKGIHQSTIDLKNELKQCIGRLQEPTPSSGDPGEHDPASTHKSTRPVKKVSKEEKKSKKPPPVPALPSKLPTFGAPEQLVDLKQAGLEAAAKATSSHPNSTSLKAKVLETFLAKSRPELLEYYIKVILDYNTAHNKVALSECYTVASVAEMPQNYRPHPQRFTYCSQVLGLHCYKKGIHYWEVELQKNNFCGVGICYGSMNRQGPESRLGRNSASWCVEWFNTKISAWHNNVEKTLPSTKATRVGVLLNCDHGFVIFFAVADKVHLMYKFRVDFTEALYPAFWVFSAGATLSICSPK

| rate of TRIM25 auto-ubiquitination [1] | Compound | number of other protein targets competed [2] |
| --- | --- | --- |
| significantly increased | CC1Cc2ccccc2N1C(=O)C1CCCN(C(=O)CCl)C1 (stereo not drawn) [Compound 11] |  |
| significantly increased | Cc1cc(C(=O)N2CCCN(C(=O)CCl)CC2)ccc1-c1ccccc1 [Compound 10] | 50 |
